Data published in ChEMBL document CHEMBL1158285, “Constituents from the stem wood of Euphorbia quinquecostata with phorbol dibutyrate receptor-binding inhibitory activity” (J Nat Prod, 1996).
Each block holds one molecule with its values, some of them ahead of it. Activity calls are given as the source filed them. The rule behind the calls is not given here.

Experiments:
[1] = (§1) Displacement of [3H]PDBu from PKC in calf brain homogenate; format: tissue-based, Bos taurus
Bos taurus = species: Bos taurus; assay: as §1; format: tissue-based

SMILES: CCCCCCCCCCCCCCCC(=O)OCC1=C[C@@H]2C(=O)[C@]3(C=C(C)[C@H](O)[C@@]3(O)[C@@H]1O)[C@H](C)C[C@@H]1[C@H]2C1(C)C
IC50 [1]: 5.3 µM

SMILES: C=C1C[C@@]23CC[C@@H]4C(C)(C)C(=O)CC[C@@]4(C)[C@@H]2C[C@@H]1[C@H](O)C3=O
IC50 [1]: > 630 µM

SMILES: CC1(C)[C@H](O)CC[C@]2(C)[C@@H]1CC[C@@]13CC[C@@H](C[C@H]12)[C@](O)(CO)C3
IC50 [1]: 73 µM

SMILES: COc1cc(OC)c(C(=O)CO)c(O)c1C
Activity (Bos taurus): inactive

SMILES: CCCCCCCCCCCCCCCC(=O)OCC1=C[C@@H]2C(=O)[C@]3(C=C(C)[C@H](OC(C)=O)[C@@]3(O)[C@@H]1OC(C)=O)[C@H](C)C[C@@H]1[C@H]2[C@]1(C)COC(C)=O
IC50 [1]: > 275 µM

More lines, now with the values ahead:

IC50 [1]: 66 µM
SMILES: CC1(C)C(=O)CC[C@]2(C)[C@@H]1CC[C@@]13CC[C@@H](C[C@H]12)[C@](O)(CO)C3

IC50 [1]: 0.023 µM
SMILES: CCCCCCCCCCCCCCCC(=O)OCC1=C[C@@H]2C(=O)[C@]3(C=C(C)[C@H](O)[C@@]3(O)[C@@H]1O)[C@H](C)C[C@@H]1[C@H]2[C@]1(C)CO
